Experimental data reported in the NIST ThermoML archive (doi:10.1016/j.tca.2013.06.040).

What was measured:
[1] = DTA
[2] = Molar enthalpy of transition or fusion; conditions: DSC
[3] = molar heat capacity at constant pressure; conditions: 101.33 kPa, Small sample (50 mg) DSC

O=[N+]([O-])[O-].[Li+] [lithium nitrate]
Crystal
Conditions	Molar enthalpy of transition or fusion [kcal/mol]	Triple point temperature [K]
[1]	–	525
[2]	5.86	–

[3]
Conditions	molar heat capacity at constant pressure [J/K/mol]
310.7 K, Crystal	63.7
315.7 K, Crystal	56.8
320.6 K, Crystal	117
325.6 K, Crystal	114
330.6 K, Crystal	80.3
335.6 K, Crystal	72.2
340.6 K, Crystal	63.4
345.6 K, Crystal	78.2
350.6 K, Crystal	88.7
355.6 K, Crystal	83.5
360.6 K, Crystal	80.8
365.6 K, Crystal	81.5
370.6 K, Crystal	75.6
375.6 K, Crystal	79.1
380.6 K, Crystal	77.3
385.6 K, Crystal	80.7
390.6 K, Crystal	81.1
395.6 K, Crystal	83.9
400.6 K, Crystal	87.5
405.5 K, Crystal	86.4
410.5 K, Crystal	81.9
415.5 K, Crystal	90.3
420.5 K, Crystal	87.1
425.5 K, Crystal	86.2
430.5 K, Crystal	91.5
435.6 K, Crystal	94.4
440.6 K, Crystal	95.6
445.5 K, Crystal	88.4
450.5 K, Crystal	93.6
455.4 K, Crystal	90.4
460.3 K, Crystal	93.1
465.4 K, Crystal	96.3
470.5 K, Crystal	97.4
475.5 K, Crystal	91.5
480.6 K, Crystal	94.5
485.5 K, Crystal	95.6
490.5 K, Crystal	99.4
495.5 K, Crystal	102
500.5 K, Crystal	98.8
505.5 K, Crystal	103
510.5 K, Crystal	110
515.5 K, Crystal	125
520.5 K, Crystal	127
535.5 K, Liquid	114
540.5 K, Liquid	122
545.5 K, Liquid	122
550.5 K, Liquid	125
555.5 K, Liquid	117
560.5 K, Liquid	121
570.5 K, Liquid	122
575.5 K, Liquid	123
580.5 K, Liquid	116
585.5 K, Liquid	121
590.5 K, Liquid	119
595.5 K, Liquid	122
600.5 K, Liquid	119
610.5 K, Liquid	113
615.5 K, Liquid	120
620.5 K, Liquid	110

O=[N+]([O-])[O-].O=[N+]([O-])[O-].[Li+].[Rb+] [lithium rubidium nitrate]
Crystal
Conditions	Molar enthalpy of transition or fusion [kcal/mol]	Triple point temperature [K]
[1]	–	460
[2]	5.31	–

[3]
Conditions	molar heat capacity at constant pressure [J/K/mol]
315.6 K, Crystal	150.8
320.6 K, Crystal	166.6
325.6 K, Crystal	171.8
330.6 K, Crystal	190.8
335.6 K, Crystal	179.2
340.6 K, Crystal	184.8
345.6 K, Crystal	184
350.6 K, Crystal	200
355.6 K, Crystal	204
360.6 K, Crystal	222
365.6 K, Crystal	222
370.6 K, Crystal	190.6
375.6 K, Crystal	206
380.6 K, Crystal	189
385.6 K, Crystal	196.4
390.5 K, Crystal	206
395.5 K, Crystal	224
400.5 K, Crystal	191.4
405.5 K, Crystal	210
410.5 K, Crystal	195.4
420.5 K, Crystal	206
425.5 K, Crystal	224
435.5 K, Crystal	232
445.5 K, Crystal	262
460.5 K, Liquid	374
470.5 K, Liquid	346
475.5 K, Liquid	342
480.5 K, Liquid	364
485.5 K, Liquid	382
490.5 K, Liquid	384

O=[N+]([O-])[O-].[Rb+] [rubidium nitrate]
Conditions	Molar enthalpy of transition or fusion, Crystal 1 [kcal/mol]	Molar enthalpy of transition or fusion, Crystal 2 [kcal/mol]	Molar enthalpy of transition or fusion, Crystal 3 [kcal/mol]	Molar enthalpy of transition or fusion, Crystal 4 [kcal/mol]	Triple point temperature, Crystal 1 [K]	Triple point temperature, Crystal 2 [K]	Triple point temperature, Crystal 3 [K]	Triple point temperature, Crystal 4 [K]
[1]	–	–	–	–	583	555	500	437
[2]	1.12	0.299	0.554	0.889	–	–	–	–

[3]
Conditions	molar heat capacity at constant pressure [J/K/mol]
325.6 K, Crystal 4	99
330.6 K, Crystal 4	99.5
335.6 K, Crystal 4	101
340.6 K, Crystal 4	102
345.6 K, Crystal 4	101
350.6 K, Crystal 4	101
355.6 K, Crystal 4	102
360.6 K, Crystal 4	100
365.6 K, Crystal 4	104
370.6 K, Crystal 4	104
375.6 K, Crystal 4	106
380.6 K, Crystal 4	107
385.6 K, Crystal 4	109
390.6 K, Crystal 4	109
395.6 K, Crystal 4	110
400.6 K, Crystal 4	111
405.6 K, Crystal 4	112
410.6 K, Crystal 4	113
415.6 K, Crystal 4	113
420.6 K, Crystal 4	114
425.5 K, Crystal 4	123
430.5 K, Crystal 4	118
435.5 K, Crystal 4	123
440.5 K, Crystal 3	833
445.5 K, Crystal 3	134
450.5 K, Crystal 3	134
455.5 K, Crystal 3	135
460.5 K, Crystal 3	136
465.5 K, Crystal 3	136
470.5 K, Crystal 3	138
475.5 K, Crystal 3	138
480.5 K, Crystal 3	138
485.5 K, Crystal 3	138
490.5 K, Crystal 3	139
495.5 K, Crystal 3	139
500.5 K, Crystal 2	303
505.5 K, Crystal 2	368
510.5 K, Crystal 2	175
515.5 K, Crystal 2	132
520.5 K, Crystal 2	134
525.5 K, Crystal 2	135
530.5 K, Crystal 2	136
535.5 K, Crystal 2	136
540.5 K, Crystal 2	136
545.5 K, Crystal 2	137
550.5 K, Crystal 2	161
555.5 K, Crystal 1	151
560.5 K, Crystal 1	399
565.5 K, Crystal 1	112
570.5 K, Crystal 1	113
575.5 K, Crystal 1	111
580.5 K, Crystal 1	115
585.5 K, Liquid	744
590.5 K, Liquid	249
595.5 K, Liquid	157
600.5 K, Liquid	140
605.5 K, Liquid	138
610.5 K, Liquid	138
615.5 K, Liquid	138
620.5 K, Liquid	137
